Laboratory results taken from patent US6500950B1, “Benzylidenepyrazolones, their preparation and use” (BASF Aktiengesellschaft, priority 1997, dated 2002).

Columns and labels:
Format in all cases: in vivo
[1] = test system: Chenopodium album; experiment: Post-emergence greenhouse experiment, herbicidal activity; conditions: post-emergence rate 0.125 or 0.0≅kg/ha of a.s., scale 0 to 100
From the text: (§1) The seeds of the test plants were sown separately for each species. For the post-emergence treatment, the test plants were first grown to a plant height of 3 to 15 cm, depending on the plant habit, and only then treated with the active compounds which had been suspended or emulsified in water. The test plants for this purpose were either sown directly and grown in the same containers, or they were first grown separately as seedlings and transplanted into the test containers a few days prior to treatment. The rate of application for the post-emergence treatment was 0.125 or 0.0≅kg/ha of a.s. Depending on the species, the plants were kept at 10-25° C. or 20-35° C. The test period extended over 2 to 4 weeks. During this time, the plants were tended, and their response to the individual treatments was evaluated. Evaluation was carried out using a scale from 0 to 100. 100 means no emergence of the plants, or complete destruction of at least the aerial parts, and 0 means no damage, or normal course of growth. The plants used in the greenhouse experiments were from the following species: [table]

[2] = test system: Polygonum persicaria; experiment: as above; conditions: post-emergence rate 0.125 or 0.0≅kg/ha of a.s., scale 0 to 100
From the text: as §1

[3] = test system: Echinochloa crus-galli; experiment: as above; conditions: for Test plants [damage in %] Echinochloa crus-galli: post-emergence
From the text: as §1, with “The rate of application for the post-emergence treatment was 0.125 or 0.0≅kg/ha of a.s.” left out

[4] = test system: Setaria faberii; experiment: as above; conditions: for Test plants [damage in %] Setaria faberii: post-emergence
From the text: as §1, with “The rate of application for the post-emergence treatment was 0.125 or 0.0≅kg/ha of a.s.” left out

[5] = test system: Zea mays; experiment: Post-emergence greenhouse experiment, damage to useful plant; conditions: post-emergence rate 0.125 or 0.0≅kg/ha of a.s., scale 0 to 100
From the text: as §1

[6] = test system: Amaranthus retroflexus; experiment: Post-emergence greenhouse experiment, herbicidal activity
From the text: as §1, with “The rate of application for the post-emergence treatment was 0.125 or 0.0≅kg/ha of a.s.” left out, “growth.” for “growth. The plants used in the greenhouse experiments were from the following species: [table]”

[7] = test system: Solanum nigrum; experiment: as above
From the text: as §1, with “The rate of application for the post-emergence treatment was 0.125 or 0.0≅kg/ha of a.s.” left out, “growth.” for “growth. The plants used in the greenhouse experiments were from the following species: [table]”

[8] = greenhouse, post-emergence rate 0.125 or 0.0≅kg/ha of a.s., scale 0 to 100
[9] = application rate 0.25 g/ha of a.s.
[10] = application rate 0.5 g/ha of a.s.

CCN1N=CC(=C(Cl)c2ccc(S(C)(=O)=O)c(C3=NOCC3)c2Cl)C1=O [I.119, cis-4-[Chloro(2-chloro-3-(4,5-dihydroisoxazol-3-yl)-4-methylsulfonylphenyl)methylene]-2-ethyl-2,4-dihydropyrazol-3-one]
damage of the plants [1]: > 98% | damage of the plants [2]: > 98% | damage of the plants [3, 8]: > 98% | Test plants [damage in %] Echinochloa crus-galli [3, 9]: 100% | Test plants [damage in %] Echinochloa crus-galli [3, 10]: 100% | damage of the plants [4, 8]: > 98% | Test plants [damage in %] Setaria faberii [4, 9]: 100% | Test plants [damage in %] Setaria faberii [4, 10]: 100% | damage of the useful plant maize [5]: 0% | Test plants [damage in %] Amaranthus retroflexus [6, 9]: 100% | Test plants [damage in %] Amaranthus retroflexus [6, 10]: 100% | Test plants [damage in %] Solanum nigrum [7, 9]: 100% | Test plants [damage in %] Solanum nigrum [7, 10]: 100%
